Assay results from US20200038412A1, “METHODS OF TREATING ALZHEIMER'S DISEASE USING AMINOSTEROL COMPOSITIONS” (Enterin, Inc., priority 2018, published 2020).
Structures can show the parent of a compound that is named as a salt.

Assays:
[1] = single and repeat intravenous administration, alone or in combination with other agents; cited from earlier work
[2] = systemic administration, mice; into the duodenum through the biliary tract; cited from earlier work
[3] = test system: patients with PD and constipation; assay: Phase 2 trial Stage 2: bowel function under daily oral dosing (escalation, fixed dose, wash-out); format: in vivo, human; conditions: patients with baseline ≥1 CSBM/week
Method: Following successful screening, all subjects underwent a 14-day run-in period where the degree of constipation was assessed through a validated daily log (Zinsmeister et al. 2013) establishing baseline CSBMs/week. Subjects with an average of <3 CSBMs/week proceeded to dosing.
In Stage 2, 34 patients were evaluated.
The primary efficacy outcome variable was whether or not a subject was a “success” or “failure”. This is an endpoint based on subject diary entries for the “fixed dose” period prior to the endpoint assessment defined as average complete stool frequency increase by 1 or more over baseline, or 3 or more complete spontaneous stools/week. The subject was deemed a “success” if s/he met one or more of the criteria listed above, otherwise the subject was deemed a “failure”. The primary analysis was based on all subjects with a baseline assessment and an assessment at the end of the “fixed-dose” period and was a comparison of the proportion of successes with 0.10 (the null hypothesis corresponding to no treatment effect).

[4] = test system: IPANs (intrinsic primary afferent neuron); conditions: perfusion through lumen of isolated bowel segment; cited from earlier work
C. elegans model of PD = conditions: C. elegans model; cited from earlier work
[5] = Pharmacokinetics of orally administered squalamine (ENT-01) in Stage 1; format: in vivo, human; conditions: oral dosing
Method: PK data were collected on the 10 patients enrolled in Stage 1 and 10 patients enrolled in Stage 2 to determine the extent of systemic absorption. In Stage 1, PK data were obtained at each visit, pre-medication, at 1, 2, 4, 8 and 24 hours (Table 10). In Stage 2, PK was measured on days 1 and 6 of the randomization period pre-medication, at 1, 2, 4 and 8 hours (Table 11).
The mean Cmax, Tmax and T1/2 and AUC of the squalamine ion following squalamine (ENT-01) oral dosing for Stage 1 patients. The PK analyses are only approximate, as the lower limit of the validated concentration range was 10 ng/ml; most of the measured concentrations fell below that value. The mean Cmax, Tmax and T1/2 and AUC of the squalamine ion following squalamine (ENT-01) oral dosing for Stage 2 patients. The PK analyses are only approximate, as the lower limit of the validated concentration range was 0.5 ng/ml.

mouse models of PD = conditions: cited from earlier work

Row | SMILES | well tolerated intravenous dose [1] | clearance and excretion [2] | mean dose required for a bowel response (prokinetic dose) [3] | effect on IPANs [4] | muscle paralysis (C. elegans model of PD) | systemic absorption [5] | gastro-intestinal motility (mouse models of PD; orally administered, mice with constipation due to overexpression of human αS (West et al)) | gastrointestinal dysmotility (mouse models of PD; several mouse models of PD)
1 | CC(C)[C@@H](CC[C@@H](C)[C@H]1CC[C@H]2[C@@H]3[C@H](O)C[C@H]4C[C@@H](NCCCNCCCCN)CC[C@]4(C)[C@H]3CC[C@]12C)OS(=O)(=O)O [squalamine dilactate salt] | at least 300 mg/m^2 | – | – | – | – | – | – | –
2 | CC(C)[C@@H](CC[C@@H](C)[C@H]1CC[C@H]2[C@@H]3[C@H](O)C[C@H]4C[C@@H](NCCCNCCCCN)CC[C@]4(C)[C@H]3CC[C@]12C)OS(=O)(=O)O [squalamine] | – | cleared by the liver and excreted as the intact molecule | 120 mg | excitation of IPANs | complete reversal of muscle paralysis | not significantly absorbed into the systemic circulation | stimulates gastro-intestinal motility | reverse gastrointestinal dysmotility
